Measured values taken from ChEMBL document CHEMBL1157504, “Discovery and SAR of 2-(1-propylpiperidin-4-yl)-1H-benzimidazole-4-carboxamide: A potent inhibitor of poly(ADP-ribose) polymerase (PARP) for the treatment of cancer” (Bioorg Med Chem, 2008).
Values after ≈ are worked out from the molar mass of the structure shown.

How the values were obtained:
[1] = biological target: T1, Poly [ADP-ribose] polymerase 1 (Homo sapiens, UniProt P09874)
Description: Inhibition of PARP1 in human C41 cells

[2] = biological target: T1, Poly [ADP-ribose] polymerase 1; remark: listed apart in the source
[3] = Half life in CD1 mouse at 3 mg/kg, iv; format: ADME, organism-based; set-up: dose 3 mg/kg, route intravenous; details: in vivo
[4] = AUC in CD1 mouse at 10 mg/kg, po; format: ADME, organism-based; set-up: dose 10 mg/kg, route oral; details: plasma
[5] = Oral bioavailability in CD1 mouse at 10 mg/kg; format: ADME, organism-based; details: in vivo
[6] = Cmax in CD1 mouse at 10 mg/kg, po; format: ADME, organism-based; set-up: dose 10 mg/kg, route oral; details: in vivo
[7] = biological target: Poly [ADP-ribose] polymerase 2 (Homo sapiens, UniProt Q9UGN5); assay: Inhibition of PARP2
[8] = Oral bioavailability in dog at 4.1 mg/kg; format: ADME, organism-based, Canis lupus familiaris; details: in vivo
[9] = Cmax in monkey at 4.1 mg/kg, po; format: ADME, organism-based, Macaca mulatta; set-up: dose 4.1 mg/kg, route oral; details: rhesus monkey, in vivo
[10] = Clearance in rat at 4.1 mg/kg; format: ADME, organism-based; set-up: dose 4.1 mg/kg; details: in vivo
[11] = AUC in monkey at 4.1 mg/kg, po; format: ADME, organism-based, Macaca mulatta; set-up: dose 4.1 mg/kg, route oral; details: rhesus monkey, plasma
[12] = Cmax in rat at 4.1 mg/kg, po; format: ADME, organism-based; set-up: dose 4.1 mg/kg, route oral; details: in vivo
[13] = Solubility in water at pH 7.8; format: physicochemical
[14] = Volume of distribution at steady state in rat at 4.1 mg/kg; format: ADME, organism-based; set-up: dose 4.1 mg/kg; details: in vivo, read-out: Vdss
[15] = Clearance in monkey at 4.1 mg/kg; format: ADME, organism-based, Macaca mulatta; set-up: dose 4.1 mg/kg; details: rhesus monkey, in vivo
[16] = Oral bioavailability in monkey at 4.1 mg/kg; format: ADME, organism-based, Macaca mulatta; details: rhesus monkey, in vivo
[17] = Clearance in CD1 mouse at 10 mg/kg; format: ADME, organism-based; set-up: dose 10 mg/kg; details: in vivo
[18] = Protein binding in human plasma; format: ADME, cell-free; details: read-out: PPB (converted)
[19] = Volume of distribution at steady state in monkey at 4.1 mg/kg; format: ADME, organism-based, Macaca mulatta; set-up: dose 4.1 mg/kg; details: rhesus monkey, in vivo, read-out: Vdss
[20] = Half life in rat at 4.1 mg/kg, iv; format: ADME, organism-based; set-up: dose 4.1 mg/kg, route intravenous; details: in vivo
[21] = Half life in dog at 4.1 mg/kg, iv; format: ADME, organism-based, Canis lupus familiaris; set-up: dose 4.1 mg/kg, route intravenous; details: in vivo
[22] = Volume of distribution at steady state in dog at 4.1 mg/kg; format: ADME, organism-based, Canis lupus familiaris; set-up: dose 4.1 mg/kg; details: in vivo, read-out: Vdss
[23] = Half life in CD1 mouse at 3 mg/kg, iv; details: in vivo
[24] = Clearance in dog at 4.1 mg/kg; format: ADME, organism-based, Canis lupus familiaris; set-up: dose 4.1 mg/kg; details: in vivo
[25] = AUC in rat at 4.1 mg/kg, po; format: ADME, organism-based; set-up: dose 4.1 mg/kg, route oral; details: plasma
[26] = Volume of distribution at steady state in CD1 mouse at 10 mg/kg; format: ADME, organism-based; set-up: dose 10 mg/kg; details: in vivo, read-out: Vdss
[27] = Oral bioavailability in rat at 4.1 mg/kg; format: ADME, organism-based; details: in vivo
[28] = Half life in monkey at 4.1 mg/kg, iv; format: ADME, organism-based, Macaca mulatta; set-up: dose 4.1 mg/kg, route intravenous; details: rhesus monkey, in vivo
[29] = Cmax in dog at 4.1 mg/kg, po; format: ADME, organism-based, Canis lupus familiaris; set-up: dose 4.1 mg/kg, route oral; details: in vivo
[30] = AUC in dog at 4.1 mg/kg, po; format: ADME, organism-based, Canis lupus familiaris; set-up: dose 4.1 mg/kg, route oral; details: plasma

Chain of Poly [ADP-ribose] polymerase 2 (Q9UGN5 whole entry): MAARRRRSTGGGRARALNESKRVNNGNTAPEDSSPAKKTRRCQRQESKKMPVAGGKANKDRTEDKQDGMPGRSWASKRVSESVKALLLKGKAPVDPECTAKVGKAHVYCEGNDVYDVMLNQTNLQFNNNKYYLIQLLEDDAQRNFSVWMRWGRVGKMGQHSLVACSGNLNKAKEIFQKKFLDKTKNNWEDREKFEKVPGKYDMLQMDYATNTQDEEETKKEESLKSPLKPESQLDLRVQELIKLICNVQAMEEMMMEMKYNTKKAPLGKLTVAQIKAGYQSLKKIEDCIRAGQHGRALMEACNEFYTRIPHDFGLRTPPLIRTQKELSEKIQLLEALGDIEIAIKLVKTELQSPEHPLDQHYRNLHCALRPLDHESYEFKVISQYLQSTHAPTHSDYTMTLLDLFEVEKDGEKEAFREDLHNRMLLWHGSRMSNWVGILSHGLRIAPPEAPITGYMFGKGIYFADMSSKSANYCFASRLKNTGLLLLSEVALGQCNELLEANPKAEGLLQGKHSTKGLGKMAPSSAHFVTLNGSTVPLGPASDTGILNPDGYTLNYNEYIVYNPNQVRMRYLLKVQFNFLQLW
T1 sequence (P09874 whole entry): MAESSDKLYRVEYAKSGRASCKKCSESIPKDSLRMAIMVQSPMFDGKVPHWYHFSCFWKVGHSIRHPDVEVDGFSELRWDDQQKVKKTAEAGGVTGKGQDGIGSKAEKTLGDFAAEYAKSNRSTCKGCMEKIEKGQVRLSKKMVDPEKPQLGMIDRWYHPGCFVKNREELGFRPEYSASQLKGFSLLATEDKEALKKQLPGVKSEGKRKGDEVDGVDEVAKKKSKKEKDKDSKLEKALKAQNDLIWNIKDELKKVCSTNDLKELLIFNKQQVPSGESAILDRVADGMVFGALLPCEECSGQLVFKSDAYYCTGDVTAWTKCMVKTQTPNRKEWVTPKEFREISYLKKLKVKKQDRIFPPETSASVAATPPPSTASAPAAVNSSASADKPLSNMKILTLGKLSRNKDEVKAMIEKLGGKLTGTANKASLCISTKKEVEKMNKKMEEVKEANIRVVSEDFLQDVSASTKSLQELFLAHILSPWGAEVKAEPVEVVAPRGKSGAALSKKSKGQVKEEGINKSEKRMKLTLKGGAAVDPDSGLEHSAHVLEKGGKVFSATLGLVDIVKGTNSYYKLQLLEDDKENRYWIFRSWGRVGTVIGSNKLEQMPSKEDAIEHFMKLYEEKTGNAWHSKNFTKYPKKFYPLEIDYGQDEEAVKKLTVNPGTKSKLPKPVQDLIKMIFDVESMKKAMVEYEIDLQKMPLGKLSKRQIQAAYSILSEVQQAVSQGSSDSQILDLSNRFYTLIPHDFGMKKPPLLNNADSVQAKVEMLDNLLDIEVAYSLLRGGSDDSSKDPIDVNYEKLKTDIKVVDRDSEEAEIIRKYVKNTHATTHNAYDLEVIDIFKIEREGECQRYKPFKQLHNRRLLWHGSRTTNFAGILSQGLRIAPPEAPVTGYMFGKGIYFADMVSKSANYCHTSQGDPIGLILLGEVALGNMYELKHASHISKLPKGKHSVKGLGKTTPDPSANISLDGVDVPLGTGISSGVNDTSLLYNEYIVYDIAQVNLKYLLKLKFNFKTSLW

CCN(CC)CCN1CCC(c2nc3cccc(C(N)=O)c3[nH]2)CC1
EC50 [1]: 94 nM | Ki [2]: 31 nM

CCCN1CC(c2nc3c(C(N)=O)cccc3[nH]2)C1
EC50 [1]: 16 nM | Ki [2]: 17 nM

NC(=O)c1cccc2[nH]c(C3CCN(C4CCCC4)CC3)nc12
EC50 [1]: 5 nM | Ki [2]: 6 nM

CC(C)N1CCCCC1c1nc2c(C(N)=O)cccc2[nH]1 (centres undefined)
EC50 [1]: 13 nM | Ki [2]: 45 nM

CCCN1CCC(c2nc3c(C(N)=O)cccc3n2C)CC1
EC50 [1]: 21 nM | Ki [2]: 34 nM

COC1CCC(c2nc3cccc(C(N)=O)c3[nH]2)CC1 (centres undefined)
EC50 [1]: 210 nM | Ki [2]: 44 nM

CC(C)N1CCCC(c2nc3cccc(C(N)=O)c3[nH]2)C1 (centres undefined)
half-life [3]: 0.4 h | EC50 [1]: 12 nM | Ki [2]: 22 nM | AUC [4]: 1200 ng·h/mL | bioavailability [5]: 100% | Cmax [6]: 800 ng/mL

NC(=O)c1cccc2[nH]c(C3CCN3)nc12 (centres undefined)
EC50 [1]: 200 nM

NC(=O)c1cccc2[nH]c(C3CCN(CCc4ccccc4)C3)nc12 (centres undefined)
half-life [3]: 0.8 h | EC50 [1]: 6 nM | AUC [4]: 1300 ng·h/mL | bioavailability [5]: 89% | Cmax [6]: 700 ng/mL

CN1CCC[C@@H]1c1nc2c(C(N)=O)cccc2[nH]1
half-life [3]: 0.1 h | AUC [4]: 40 ng·h/mL | bioavailability [5]: 25% | Cmax [6]: 30 ng/mL

CC(=O)N1CCC(c2nc3cccc(C(N)=O)c3[nH]2)CC1
Ki [2]: 59 nM

CC(C)N1CCC[C@H]1c1nc2c(C(N)=O)cccc2[nH]1
EC50 [1]: 15 nM | Ki [2]: 20 nM

CC(C)N1CCCC(c2nc3cccc(C(N)=O)c3[nH]2)CC1 (centres undefined)
EC50 [1]: 6 nM | Ki [2]: 5 nM

NC(=O)c1cccc2[nH]c(C3CNCCN3)nc12 (centres undefined)
EC50 [1]: > 1000 nM | Ki [2]: 26 nM

CN1CCN(C)C(c2nc3cccc(C(N)=O)c3[nH]2)C1 (centres undefined)
EC50 [1]: 97 nM | Ki [2]: 35 nM

NC(=O)c1cccc2[nH]c(C3CCN(S(=O)(=O)c4ccccc4)CC3)nc12
Ki [7]: 24 nM | EC50 [1]: > 1000 nM | Ki [2]: 27 nM

CC(C)N1CCC1c1nc2c(C(N)=O)cccc2[nH]1 (centres undefined)
Ki [2]: 110 nM

CC(C)N1CCC(c2nc3c(C(N)=O)cc(Cl)cc3[nH]2)CC1
half-life [3]: 1.4 h | EC50 [1]: 9 nM | Ki [2]: 18 nM | AUC [4]: 1700 ng·h/mL | bioavailability [5]: 100% | Cmax [6]: 300 ng/mL

NC(=O)c1cccc2[nH]c(C3CCCNC3)nc12 (centres undefined)
half-life [3]: 2 h | EC50 [1]: 24 nM | Ki [2]: 11 nM | AUC [4]: 1000 ng·h/mL | bioavailability [5]: 26% | Cmax [6]: 200 ng/mL

CCCN1CCC(c2nc3c(C(N)=O)cccc3[nH]2)C1 (centres undefined)
EC50 [1]: 3 nM | Ki [2]: 8 nM

CC(C)N1CCC(c2nc3c(C(N)=O)cccc3[nH]2)CC1
Ki [7]: 2 nM | EC50 [1]: 4 nM | Ki [2]: 7 nM

CN1CCCCC1c1nc2c(C(N)=O)cccc2[nH]1 (centres undefined)
EC50 [1]: 30 nM | Ki [2]: 29 nM

CN(C)S(=O)(=O)N1CCC(c2nc3c(C(N)=O)cccc3[nH]2)CC1
EC50 [1]: 170 nM | Ki [2]: 28 nM

NC(=O)c1cccc2[nH]c(C3CCNCC3)nc12
EC50 [1]: > 1000 nM | Ki [2]: 5 nM

NC(=O)c1cccc2[nH]c([C@H]3CCCN3)nc12
half-life [3]: 1.2 h | AUC [4]: 3400 ng·h/mL | bioavailability [5]: 100% | Cmax [6]: 1800 ng/mL

CN1CCCC(c2nc3c(C(N)=O)cccc3[nH]2)C1 (centres undefined)
EC50 [1]: 15 nM | Ki [2]: 30 nM

CCCN1CCC(c2nc3cccc(C(N)=O)c3[nH]2)CC1
half-life [3]: 1.2 h | Ki [7]: 5 nM | EC50 [1]: 3 nM | bioavailability [8]: 82% | Cmax [9]: 200 ng/mL | clearance [10]: 48.3 mL/min/kg | AUC [11]: 700 ng·h/mL | Cmax [12]: 800 ng/mL | solubility [13]: 6000 µg/mL (≈ 21 mM) | Vd [14]: 10.7 L/kg | clearance [15]: 33.3 mL/min/kg | bioavailability [16]: 32% | clearance [17]: 88.3 mL/min/kg | fraction unbound [18]: 0.43 | Vd [19]: 4.9 L/kg | half-life [20]: 2.6 h | Ki [2]: 8 nM | half-life [21]: 2.7 h | Vd [22]: 3.6 L/kg | AUC [4]: 1200 ng·h/mL | half-life [23]: 1.2 h | clearance [24]: 15 mL/min/kg | AUC [25]: 700 ng·h/mL | Vd [26]: 9.1 L/kg | bioavailability [27]: 48% | half-life [28]: 1.7 h | bioavailability [5]: 63% | Cmax [29]: 1000 ng/mL | AUC [30]: 3700 ng·h/mL | Cmax [6]: 400 ng/mL

CC(C)N1CCC[C@@H]1c1nc2cccc(C(N)=O)c2[nH]1
EC50 [1]: 12 nM | Ki [2]: 21 nM

NC(=O)c1cccc2[nH]c(C3CNC3)nc12
Ki [7]: 11 nM

CN1CCC(c2nc3cccc(C(N)=O)c3[nH]2)CC1
EC50 [1]: 9 nM | Ki [2]: 19 nM

N#Cc1ccc(N2CCC(c3nc4c(C(N)=O)cccc4[nH]3)CC2)cc1
EC50 [1]: 21 nM | Ki [2]: 3 nM

NC(=O)c1cccc2nc([C@@H]3CCC(=O)N3)[nH]c12
Ki [7]: 3 nM

NC(=O)c1cccc2[nH]cnc12
Ki [2]: 240 nM
